Results as given in ChEMBL document CHEMBL3112491, “3-(5-)-Amino-o-diarylisoxazoles: regioselective synthesis and antitubulin activity” (2014).

Assays:
Format in all cases: functional
[1] = Growth inhibition of human OVCAR5 cells after 48 hrs by sulforhodamine B assay; conditions: OVCAR-5, 48 h
T47D = assay: Growth inhibition of human T47D cells after 48 hrs by sulforhodamine B assay
DU-145 = assay: Growth inhibition of human DU145 cells after 48 hrs by sulforhodamine B assay; conditions: DU-145, 48 h
NCI-H460 = assay: Growth inhibition of human NCI-H460 cells after 48 hrs by sulforhodamine B assay; conditions: NCI-H460, 48 h
MCF7 = assay: Growth inhibition of human MCF7 cells after 48 hrs by sulforhodamine B assay; conditions: MCF7, 48 h
COLO 205 = assay: Growth inhibition of human COLO205 cells after 48 hrs by sulforhodamine B assay; conditions: COLO 205, 48 h
SF-268 = assay: Growth inhibition of human SF268 cells after 48 hrs by sulforhodamine B assay; conditions: SF-268, 48 h
NCI-H322M = assay: Growth inhibition of human NCI-H322M cells after 48 hrs by sulforhodamine B assay
Paracentrotus lividus [2] = assay: Antimitotic activity in sea urchin fertilized egg assessed as cleavage alteration treated at 8 to 20 mins post-fertilization measured at 2.5 to 5.5 hrs post-fertilization
Malme-3M = assay: Growth inhibition of human MALME-3M cells after 48 hrs by sulforhodamine B assay
[3] = Growth inhibition of human Hs 578T cells after 48 hrs by sulforhodamine B assay
M14 = assay: Growth inhibition of human M14 cells after 48 hrs by sulforhodamine B assay; conditions: M14, 48 h
[4] = Growth inhibition of human RXF393 cells after 48 hrs by sulforhodamine B assay; conditions: RXF 393, 48 h
SK-MEL-5 = assay: Growth inhibition of human SK-MEL-5 cells after 48 hrs by sulforhodamine B assay; conditions: SK-MEL-5, 48 h
[5] = Growth inhibition of human SF539 cells after 48 hrs by sulforhodamine B assay; conditions: SF-539, 48 h
K562 = assay: Growth inhibition of human K562 cells after 48 hrs by sulforhodamine B assay; conditions: K562, 48 h
CAKI-1 = assay: Growth inhibition of human CAKI-1 cells after 48 hrs by sulforhodamine B assay; conditions: CAKI-1, 48 h
IGROV-1 = assay: Growth inhibition of human IGROV1 cells after 48 hrs by sulforhodamine B assay; conditions: IGROV-1, 48 h
SK-MEL-28 = assay: Growth inhibition of human SK-MEL-28 cells after 48 hrs by sulforhodamine B assay; conditions: SK-MEL-28, 48 h
TK-10 = assay: Growth inhibition of human TK10 cells after 48 hrs by sulforhodamine B assay; conditions: TK-10, 48 h
MDA-MB-468 = assay: Growth inhibition of human MDA-MB-468 cells after 48 hrs by sulforhodamine B assay; conditions: MDA-MB-468, 48 h
MDA-MB-435 = assay: Growth inhibition of human MDA-MB-435 cells after 48 hrs by sulforhodamine B assay; conditions: MDA-MB-435, 48 h
ACHN = assay: Growth inhibition of human ACHN cells after 48 hrs by sulforhodamine B assay
NCI-H522 = assay: Growth inhibition of human NCI-H522 cells after 48 hrs by sulforhodamine B assay; conditions: NCI-H522, 48 h
OVCAR-8 = assay: Growth inhibition of human OVCAR8 cells after 48 hrs by sulforhodamine B assay; conditions: OVCAR-8, 48 h
Paracentrotus lividus [6] = assay: Microtubule destabilizing activity in sea urchin free-swimming blastula assessed as embryo spinning treated at 9 to 10 hrs post-fertilization measured after 0.15 to 15 hrs
UACC-62 = assay: Growth inhibition of human UACC62 cells after 48 hrs by sulforhodamine B assay; conditions: UACC-62, 48 h
[7] = Growth inhibition of human UO31 cells after 48 hrs by sulforhodamine B assay; conditions: UO-31, 48 h
PC-3 = assay: Growth inhibition of human PC3 cells after 48 hrs by sulforhodamine B assay; conditions: PC-3, 48 h
SR = assay: Growth inhibition of human SR cells after 48 hrs by sulforhodamine B assay
MDA-MB-231 = assay: Growth inhibition of human MDA-MB-231 cells after 48 hrs by sulforhodamine B assay; conditions: MDA-MB-231, 48 h
SNB-19 = assay: Growth inhibition of human SNB19 cells after 48 hrs by sulforhodamine B assay; conditions: SNB-19, 48 h
U-251 = assay: Growth inhibition of human U251 cells after 48 hrs by sulforhodamine B assay; conditions: U-251, 48 h
NCI-H226 = assay: Growth inhibition of human NCI-H226 cells after 48 hrs by sulforhodamine B assay; conditions: NCI-H226, 48 h
NCI-H23 = assay: Growth inhibition of human NCI-H23 cells after 48 hrs by sulforhodamine B assay; conditions: NCI-H23, 48 h
[8] = Growth inhibition of human EKVX cells after 48 hrs by sulforhodamine B assay
KM12 = assay: Growth inhibition of human KM12 cells after 48 hrs by sulforhodamine B assay; conditions: KM12, 48 h
HT-29 = assay: Growth inhibition of human HT-29 cells after 48 hrs by sulforhodamine B assay; conditions: HT-29, 48 h
CCRF-CEM = assay: Growth inhibition of human CCRF-CEM cells after 48 hrs by sulforhodamine B assay
HL-60(TB) = assay: Growth inhibition of human HL-60(TB) cells after 48 hrs by sulforhodamine B assay; conditions: HL-60, 48 h
SK-OV-3 = assay: Growth inhibition of human SKOV3 cells after 48 hrs by sulforhodamine B assay; conditions: SK-OV-3, 48 h
SF-295 = assay: Growth inhibition of human SF295 cells after 48 hrs by sulforhodamine B assay; conditions: SF-295, 48 h
[9] = Growth inhibition of human OVCAR4 cells after 48 hrs by sulforhodamine B assay; conditions: OVCAR-4, 48 h
[10] = Growth inhibition of human HOP92 cells after 48 hrs by sulforhodamine B assay; conditions: HOP-92, 48 h
OVCAR-3 = assay: Growth inhibition of human OVCAR3 cells after 48 hrs by sulforhodamine B assay; conditions: OVCAR-3, 48 h
Paracentrotus lividus [11] = assay: Antimitotic activity in sea urchin fertilized egg assessed as cleavage arrest treated at 8 to 20 mins post-fertilization measured at 2.5 to 5.5 hrs post-fertilization
A549 = assay: Growth inhibition of human A549/ATCC cells after 48 hrs by sulforhodamine B assay; conditions: A549, 48 h
SK-MEL-2 = assay: Growth inhibition of human SK-MEL-2 cells after 48 hrs by sulforhodamine B assay; conditions: SK-MEL-2, 48 h
SW-620 = assay: Growth inhibition of human SW620 cells after 48 hrs by sulforhodamine B assay; conditions: SW-620, 48 h
[12] = Growth inhibition of human UACC257 cells after 48 hrs by sulforhodamine B assay; conditions: UACC-257, 48 h
[13] = Growth inhibition of human NCI-ADR-RES cells after 48 hrs by sulforhodamine B assay
HOP-62 = assay: Growth inhibition of human HOP62 cells after 48 hrs by sulforhodamine B assay; conditions: HOP-62, 48 h
HCT-15 = assay: Growth inhibition of human HCT15 cells after 48 hrs by sulforhodamine B assay; conditions: HCT-15, 48 h
HCT-116 = assay: Growth inhibition of human HCT116 cells after 48 hrs by sulforhodamine B assay; conditions: HCT-116, 48 h
MOLT-4 = assay: Growth inhibition of human MOLT4 cells after 48 hrs by sulforhodamine B assay; conditions: MOLT-4, 48 h
RPMI-8226 = assay: Growth inhibition of human RPMI8226 cells after 48 hrs by sulforhodamine B assay; conditions: RPMI-8226, 48 h
BT-549 = assay: Growth inhibition of human BT549 cells after 48 hrs by sulforhodamine B assay; conditions: BT-549, 48 h
SNB-75 = assay: Growth inhibition of human SNB75 cells after 48 hrs by sulforhodamine B assay; conditions: SNB-75, 48 h
[14] = Growth inhibition of human HCC2998 cells after 48 hrs by sulforhodamine B assay; conditions: HCC 2998, 48 h
SN12C = assay: Growth inhibition of human SN12C cells after 48 hrs by sulforhodamine B assay
786-0 = assay: Growth inhibition of human 786-0 cells after 48 hrs by sulforhodamine B assay; conditions: 786-0, 48 h
A498 = assay: Growth inhibition of human A498 cells after 48 hrs by sulforhodamine B assay; conditions: A498, 48 h
LOX IMVI = assay: Growth inhibition of human LOXIMVI cells after 48 hrs by sulforhodamine B assay

COc1ccc(-c2onc(N)c2-c2cc(OC)c3c(c2)OCO3)cc1
GI50 [1]: 8.8 µM
GI50 (T47D): 4.41 µM
GI50 (DU-145): 3.99 µM
GI50 (NCI-H460): 3.04 µM
GI50 (MCF7): 0.962 µM
GI50 (COLO 205): 2.44 µM
GI50 (SF-268): 13.3 µM
GI50 (NCI-H322M): 5.98 µM
EC (Paracentrotus lividus [2]): 0.2 µM
GI50 (Malme-3M): 8.51 µM
GI50 [3]: 2.94 µM
GI50 (M14): 1.4 µM
GI50 [4]: 2.94 µM
GI50 (SK-MEL-5): 2.45 µM
GI50 [5]: 3.25 µM
GI50 (K562): 0.519 µM
GI50 (CAKI-1): 3.69 µM
GI50 (IGROV-1): 10.6 µM
GI50 (SK-MEL-28): 5.62 µM
GI50 (TK-10): 12.3 µM
GI50 (MDA-MB-468): 0.538 µM
GI50 (MDA-MB-435): 0.29 µM
GI50 (ACHN): 6.74 µM
GI50 (NCI-H522): 0.796 µM
GI50 (OVCAR-8): 4.26 µM
EC (Paracentrotus lividus [6]): >10 µM
GI50 (UACC-62): 2.45 µM
GI50 [7]: 14.3 µM
GI50 (PC-3): 4.28 µM
GI50 (SR): 0.449 µM
GI50 (MDA-MB-231): 3.75 µM
GI50 (SNB-19): 6.74 µM
GI50 (U-251): 2.31 µM
GI50 (NCI-H226): 28 µM
GI50 (NCI-H23): 3.08 µM
GI50 [8]: 6.58 µM
GI50 (KM12): 2.23 µM
GI50 (HT-29): 1.49 µM
GI50 (CCRF-CEM): 2.47 µM
GI50 (HL-60(TB)): 1.3 µM
GI50 (SK-OV-3): 4.2 µM
GI50 (SF-295): 2.32 µM
GI50 [9]: 16.1 µM
GI50 [10]: 6.35 µM
GI50 (OVCAR-3): 2.39 µM
EC (Paracentrotus lividus [11]): >4 µM
GI50 (A549): 2.74 µM
GI50 (SK-MEL-2): 1.32 µM
GI50 (SW-620): 0.495 µM
GI50 [12]: 3.16 µM
GI50 [13]: 0.684 µM
GI50 (HOP-62): 4.59 µM
GI50 (HCT-15): 1.14 µM
GI50 (HCT-116): 2.01 µM
GI50 (MOLT-4): 3.28 µM
GI50 (RPMI-8226): 4.07 µM
GI50 (BT-549): 2.43 µM
GI50 (SNB-75): 1.75 µM
GI50 [14]: 2.77 µM
GI50 (SN12C): 5.13 µM
GI50 (786-0): 6.56 µM
GI50 (A498): 1.81 µM
GI50 (LOX IMVI): 3.26 µM
